{"source": "patent US8859580B2", "about": "(Boehringer Ingelheim International GmbH, priority 2007, dated 2014)"}
{"target": "T1, 11β-HSD1 (Homo sapiens, UniProt P28845)", "T1 construct": "detecting cortisol generated from cortisterone by human liver microsomes; from tissue; host or cells: human liver microsomes", "T1 sequence (P28845 whole entry)": "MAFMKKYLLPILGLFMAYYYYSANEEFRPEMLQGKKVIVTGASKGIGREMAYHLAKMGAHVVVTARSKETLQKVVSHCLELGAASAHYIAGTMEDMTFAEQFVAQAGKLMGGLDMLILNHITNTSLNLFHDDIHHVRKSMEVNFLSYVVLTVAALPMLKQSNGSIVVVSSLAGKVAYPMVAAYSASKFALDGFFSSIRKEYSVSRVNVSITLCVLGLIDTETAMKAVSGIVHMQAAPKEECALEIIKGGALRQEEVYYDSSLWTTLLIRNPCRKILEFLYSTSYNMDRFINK", "experiment": "In vitro inhibition of 11β-HSD1, HTRF detection of cortisol generated from cortisone by human liver microsomes", "type": "biochemical", "settings": "11β-HSD IC50 (nM), 1 hour at 37° C., pH 6.0, NADPH 200 μM, cortisone 80 nM, inhibition relative to carbenoxolone signal", "in_short": "(§1)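 Inhibition expressed against the carbenoxolone signal and fitted to IC50 curves. Readout: HTRF competition between microsomal cortisol and XL665-labelled cortisol for Eu-cryptate anti-cortisol antibody (typically 2 h), with emission ratio 665/615 calibrated to cortisol concentration.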", "units": {"IC50": "nM"}}
{"smiles": "N#CC12CCN(C(=O)c3ccc4ncsc4c3)C(Cc3ccc(O)cc31)C2", "note": "(centres unmarked) [Example 177, 3-(Benzothiazole-6-carbonyl)-8-hydroxy-2,3,4,5-tetrahydro-1H-2,6-methano-benzo[d]azocine-6-carbonitrile]", "IC50": 8910}
{"smiles": "CC(=O)Nc1ccc(C(=O)N2CC[C@@]3(C)c4cccc(O)c4C[C@@H]2C3(C)C)cc1", "note": "[Example 15, N-{4-[(2R,6S)-10-Hydroxy-6,11,11-trimethyl-1,2,5,6-tetrahydro-4H-2,6-methano-benzo[d]azocine-3-carbonyl]-phenyl}-acetamide]", "IC50": 354}
{"smiles": "CCOC(=O)c1cccc2c1C[C@H]1N(C(=O)c3ccc4nc[nH]c4c3)CC[C@]2(C)C1(C)C", "note": "[Example 95, (2R,6S)-3-(1H-Benzoimidazole-5-carbonyl)-6,11,11-trimethyl-1,2,3,4,5,6-hexahydro-2,6-methano-benzo[d]azocine-10-carboxylic acid ethyl ester]", "IC50": 3840}
{"smiles": "CC1(C)[C@H]2Cc3c(O)cccc3[C@]1(C)CCN2C(=O)c1ccccc1C#N", "note": "[Example 8, 2-[(2R,6S)-10-Hydroxy-6,11,11-trimethyl-1,2,5,6-tetrahydro-4H-2,6-methano-benzo[d]azocine-3-carbonyl]-benzonitrile]", "IC50": 3360}
{"smiles": "C#Cc1cc(C(=O)N2CC[C@@]3(C)c4cccc(O)c4C[C@@H]2C3(C)C)ccc1C(=O)N1CCCC1", "note": "[Example 32, [3-Ethynyl-4-(pyrrolidine-1-carbonyl)-phenyl]-[(2R,6S)-10-hydroxy-6,11,11-trimethyl-1,2,5,6-tetrahydro-4H-2,6-methano-benzo[d]azocin-3-yl]-methanone]", "IC50": 915}
{"smiles": "Cc1ccoc1C(=O)N1CC[C@@]2(C)c3cc(O)ccc3C[C@@H]1[C@@H]2C", "note": "[Example 112, [(2R,6R,11R)-8-Hydroxy-6,11-dimethyl-1,2,5,6-tetrahydro-4H-2,6-methano-benzo[d]azocin-3-yl]-(3-methyl-furan-2-yl)-methanone]", "IC50": 1230}
{"smiles": "CC1(C)[C@H]2Cc3c(O)cccc3[C@]1(C)CCN2C(=O)c1ccc(CN2CCC(O)C2)cc1", "note": "(stereo partly drawn) [Example 188, [4-(3-Hydroxy-pyrrolidin-1-ylmethyl)-phenyl]-[(2R,6S)-10-hydroxy-6,11,11-trimethyl-1,2,5,6-tetrahydro-4H-2,6-methano-benzo[d]azocin-3-yl]-methanone]", "IC50": 2920}
{"smiles": "Cn1cnc2ccc(C(=O)N3CC[C@@]4(C)c5cccc(O)c5C[C@@H]3C4(C)C)cc21", "note": "[Example 81, [(2R,6S)-10-Hydroxy-6,11,11-trimethyl-1,2,5,6-tetrahydro-4H-2,6-methano-benzo[d]azocin-3-yl]-(3-methyl-3H-benzoimidazol-5-yl)-methanone]", "IC50": 463}
{"smiles": "C[C@@H]1[C@H]2Cc3ccc(-c4cncnc4)cc3[C@]1(C)CCN2C(=O)c1ccc2nc[nH]c2c1", "note": "[Example 252, (3H-Benzoimidazol-5-yl)-[(2R,6R,11S)-6,11-dimethyl-8-pyrimidin-5-yl-1,2,5,6-tetrahydro-4H-2,6-methano-benzo[d]azocin-3-yl]-methanone]", "IC50": 61}
{"smiles": "Cn1nnc2cc3c(cc21)C[C@H]1N(C(=O)c2ccc4nc[nH]c4c2)CC[C@]3(C)C1(C)C", "note": "[Example 258, (3H-Benzoimidazol-5-yl)-[(6R,10S)-5,6,7,8,9,10-hexahydro-3,10,12,12-tetramethyl-6,10-methano-triazolo[4,5-i][3]benzazocin-7-yl]-methanone]", "IC50": 33}
{"smiles": "CC1(C)[C@H]2Cc3cc4nc(C5CC5)[nH]c4cc3[C@]1(C)CCN2C(=O)c1ccc2nc[nH]c2c1", "note": "[Example 271, (3H-Benzoimidazol-5-yl)-[(6R,10S)-2-cyclopropyl-5,6,7,8,9,10-hexahydro-10,12,12-trimethyl-6,10-methano-imidazo[5,4-i][3]benzazocin-7-yl]-methanone]", "IC50": 50}
{"smiles": "CCn1cc(C(=O)N2CC[C@@]3(C)c4cccc(O)c4C[C@@H]2C3(C)C)c2ccccc21", "note": "[Example 222, (1-Ethyl-1H-indol-3-yl)-[(2R,6S)-10-hydroxy-6,11,11-trimethyl-1,2,5,6-tetrahydro-4H-2,6-methano-benzo[d]azocin-3-yl]-methanone]", "IC50": 124}
{"smiles": "CC(O)(c1ccc2c(c1)[C@]1(C)CCN(C(=O)c3ccc4nc[nH]c4c3)[C@H](C2)C1(C)C)C(F)(F)F", "note": "(stereo partly drawn) [Example 344, (3H-Benzoimidazol-5-yl)-[(2R,6S)-6,11,11-trimethyl-8-(2,2,2-trifluoro-1-hydroxy-1-methyl-ethyl)-1,2,5,6-tetrahydro-4H-2,6-methano-benzo[d]azocin-3-yl]-methanone]", "IC50": 35}
{"smiles": "C[C@@H]1[C@@H]2Cc3ccc(O)cc3[C@@]1(C)CCN2C(=O)c1ccc2nc[nH]c2c1", "note": "[Example 246, (3H-Benzoimidazol-5-yl)-[(2S,6S,11S)-8-hydroxy-6,11-dimethyl-1,2,5,6-tetrahydro-4H-2,6-methano-benzo[d]azocin-3-yl)-methanone]", "IC50": 637}
{"smiles": "O=C(c1ccc2nc[nH]c2c1)N1CCC2(C(=O)O)CC1Cc1ccc(O)cc12", "note": "(centres unmarked) [Example 213, 3-(3H-Benzoimidazole-5-carbonyl)-8-hydroxy-2,3,4,5-tetrahydro-1H-2,6-methano-benzo[d]azocine-6-carboxylic acid]", "IC50": 2970}
{"smiles": "CC1(C)[C@H]2Cc3c(O)cccc3[C@]1(C)CCN2C(=O)c1ccc(CN2CCCCC2)cc1", "note": "[Example 22, [(2R,6S)-10-Hydroxy-6,11,11-trimethyl-1,2,5,6-tetrahydro-4H-2,6-methano-benzo[d]azocin-3-yl]-(4-piperidin-1-ylmethyl-phenyl)-methanone]", "IC50": 5040}
{"smiles": "CC1(C)[C@H]2Cc3c(O)cccc3[C@]1(C)CCN2C(=O)c1ccc(CNC(=O)c2ccccc2)cc1", "note": "[Example 125, N-{4-[(2R,6S)-10-Hydroxy-6,11,11-trimethyl-1,2,5,6-tetrahydro-4H-2,6-methano-benzo[d]azocine-3-carbonyl]-benzyl}-benzamide]", "IC50": 989}
{"smiles": "CC(O)c1ccc2c(c1)[C@]1(C)CCN(C(=O)c3ccc4nc[nH]c4c3)[C@H](C2)C1(C)C", "note": "(stereo partly drawn) [Example 211, (3H-Benzoimidazol-5-yl)-[(2R,6S)-8-(1-hydroxy-ethyl)-6,11,11-trimethyl-1,2,5,6-tetrahydro-4H-2,6-methano-benzo[d]azocin-3-yl]-methanone]", "IC50": 31}
{"smiles": "CC1(C)[C@H]2Cc3c(O)cccc3[C@]1(C)CCN2C(=O)c1ccccn1", "note": "[Example 128, [(2R,6S)-10-Hydroxy-6,11,11-trimethyl-1,2,5,6-tetrahydro-4H-2,6-methano-benzo[d]azocin-3-yl]-pyridin-2-yl-methanone]", "IC50": 1290}
{"smiles": "CC1(C)[C@H]2Cc3c(O)cccc3[C@]1(C)CCN2C(=O)c1ccnn1-c1ccccc1", "note": "[Example 216, [(2R,6S)-10-Hydroxy-6,11,11-trimethyl-1,2,5,6-tetrahydro-4H-2,6-methano-benzo[d]azocin-3-yl]-(2-phenyl-2H-pyrazol-3-yl)-methanone]", "IC50": 1720}
{"smiles": "CC1(C)C(=O)Nc2ccc(C(=O)N3CC[C@@]4(C)c5ccccc5C[C@@H]3C4(C)C)cc21", "note": "[Example 308, 3,3-Dimethyl-5-[(2R,6S)-6,11,11-trimethyl-1,2,5,6-tetrahydro-4H-2,6-methano-benzo[d]azocine-3-carbonyl]-1,3-dihydro-indol-2-one]", "IC50": 210}
{"smiles": "CC1(C)[C@H]2Cc3c(O)cccc3[C@]1(C)CCN2C(=O)c1ccc(C(N)=O)cc1", "note": "[Example 3, 4-[(2R,6S)-10-Hydroxy-6,11,11-trimethyl-1,2,5,6-tetrahydro-4H-2,6-methano-benzo[d]azocine-3-carbonyl]benzamide]", "IC50": 85}
{"smiles": "CC12CCN(C(=O)c3ccc4nc[nH]c4c3)C(Cc3cc(NS(C)(=O)=O)ccc31)C2(C)C", "note": "(centres unmarked) [Example 181, N-[3-(3H-Benzoimidazole-5-carbonyl)-6,11,11-trimethyl-1,2,3,4,5,6-hexahydro-2,6-methano-benzo[d]azocin-9-yl]-methanesulfonamide]", "IC50": 147}
{"smiles": "CC1(C)[C@H]2Cc3c(O)cccc3[C@]1(C)CCN2C(=O)c1ccc2nn[nH]c2c1", "note": "[Example 21, (3H-Benzotriazol-5-yl)-[(2R,6S)-10-hydroxy-6,11,11-trimethyl-1,2,5,6-tetrahydro-4H-2,6-methano-benzo[d]azocin-3-yl]-methanone]", "IC50": 669}
{"smiles": "Cc1cc(C(=O)N2CC[C@@]3(C)c4cccc(O)c4C[C@@H]2C3(C)C)n(C)n1", "note": "[Example 215, (2,5-Dimethyl-2H-pyrazol-3-yl)-[(2R,6S)-10-hydroxy-6,11,11-trimethyl-1,2,5,6-tetrahydro-4H-2,6-methano-benzo[d]azocin-3-yl]-methanone]", "IC50": 1730}
{"smiles": "CC1(C)[C@H]2Cc3cc4nc(-c5ccnnc5)[nH]c4cc3[C@]1(C)CCN2C(=O)c1ccc2nc[nH]c2c1", "note": "[Example 276, (3H-Benzoimidazol-5-yl)-[(6R,10S)-5,6,7,8,9,10-hexahydro-10,12,12-trimethyl-2-pyridazin-4-yl-6,10-methano-imidazo[5,4-i][3]benzazocin-7-yl]-methanone]", "IC50": 34}
{"smiles": "C[C@H]1[C@H]2Cc3ccc(O)cc3[C@]1(C)CCN2C(=O)c1ccccc1[N+](=O)[O-]", "note": "[Example 115, [(2R,6R,11R)-8-Hydroxy-6,11-dimethyl-1,2,5,6-tetrahydro-4H-2,6-methano-benzo[d]azocin-3-yl]-(2-nitro-phenyl)-methanone]", "IC50": 1590}
{"smiles": "CC1(C)[C@H]2Cc3c(O)cccc3[C@]1(C)CCN2C(=O)c1ccc(CN2CCCC2=O)cc1", "note": "[Example 130, 1 -{4-[(2R,6S)-10-Hydroxy-6,11,11-trimethyl-1,2,5,6-tetrahydro-4H-2,6-methano-benzo[d]azocine-3-carbonyl]-benzyl}-pyrrolidin-2-one]", "IC50": 1610}
{"target": "T1, 11β-HSD1", "experiment": "In vitro inhibition of 11β-HSD1, HTRF detection of cortisol generated from cortisone by human liver microsomes", "type": "biochemical", "settings": "1 hour at 37° C., pH 6.0, NADPH 200 μM, cortisone 80 nM, inhibition relative to carbenoxolone signal, read-out: 11β-HSD IC50", "in_short": "as §1", "units": {"IC50": "nM"}}
{"smiles": "O=C(c1ccc2nc[nH]c2c1)N1CCC2CC1Cc1c2[nH]c2ccccc12", "note": "(centres unmarked) [Example 245, (3H-Benzoimidazol-5-yl)-(2,3,4,5,6,7-hexahydro-2,6-methano-azocino[5,4-b]indol-3-yl)-methanone]", "IC50": 257}
